This passage reports inhibition results from US7714009B2, “Nitrogen-containing fused heterocyclic compounds” (Takeda Pharmaceutical Company Limited, priority 2003, dated 2010).

Bounds are passed on as bounds.

The assay has as its target T1, human CRF receptor (Homo sapiens, UniProt P34998).
T1 construct: expressed in transfected cells; host or cells: CHO cells (membrane fraction)
T1 sequence (P34998 24-415): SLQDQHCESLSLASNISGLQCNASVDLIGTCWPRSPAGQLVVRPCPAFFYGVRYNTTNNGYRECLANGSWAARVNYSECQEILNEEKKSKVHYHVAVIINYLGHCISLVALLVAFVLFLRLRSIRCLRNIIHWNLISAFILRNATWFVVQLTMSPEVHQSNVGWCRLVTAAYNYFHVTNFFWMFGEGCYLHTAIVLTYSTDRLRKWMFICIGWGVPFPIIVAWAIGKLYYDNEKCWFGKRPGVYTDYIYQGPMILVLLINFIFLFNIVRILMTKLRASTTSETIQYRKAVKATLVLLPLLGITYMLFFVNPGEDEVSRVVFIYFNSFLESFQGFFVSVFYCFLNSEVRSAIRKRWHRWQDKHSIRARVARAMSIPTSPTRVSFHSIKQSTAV
Put plainly: Measurement of Corticotropin-Releasing Factor (CRF) Binding Inhibitory Rate. The following applies: 1000 nM test compound; human CRF receptor expressing CHO cellular membrane fraction; 50 pM 125I-CRF; room temperature 1 hour. As for the experimental part: Measurement of Corticotropin-Releasing Factor (CRF) Binding Inhibitory Rate
A receptor binding experiment was carried out using a human CRF receptor expressing CHO cellular membrane fraction and sheep CRF, [^125I]-tyr^0(^125I-CRF). 1000 nM of a test compound was incubated with 1 μg of human CRF receptor expressing CHO cellular membrane fraction and 50 pM of ^125I-CRF in a binding assay buffer (50 mM Tris-HCl, 5 mM EDTA, 10 mM MgCl2, 0.05% CHAPS, 0.1% BSA, 0.5 mM PMSF, […] pepstatin, 20 μg/ml leupeptin, pH 7.5). In addition, for measuring nonspecific binding (NSB), 0.1 μM unlabelled human Urocortin was incubated with 1 μg of human CRF receptor expressing CHO cellular membrane fraction and 50 pM of ^125I-CRF in a binding assay buffer. After a binding reaction was carried out at room temperature for 1 hour, the membrane was entrapped on a glass filter (UniFilter plate GF-C/Perkin Elmer) by suction filtration using a cell harvester (Perkin Elmer), and washed with ice-cooled 50 mM Tris-HCl (pH 7.5). After drying the glass filter, a liquid scintillation cocktail (Microscinti 0, Perkin Elmer) was added, and the radioactivity of ^125I-CRF remaining on a glass filter was measured using Topcount (Perkin Elmer).
(TB−SB)/(TB−NSB)×100 (SB: radioactivity when a compound is added, TB: maximum binding radioactivity, NSB: nonspecific binding radioactivity) was calculated to obtain a binding inhibitory rate under the presence of 1,000 nM or 100 nM of each test substances.
The molecule `CCC1CCCCN1c1cccc2nc(Nc3c(C)cc(Br)cc3OC)n(C)c12` (centres unmarked) [Example 183, N-(4-Bromo-2-methoxy-6-methylphenyl)-7-(2-ethyl-1-piperidinyl)-1-methyl-1H-benzimidazol-2-amine] registered an inhibition at 1 µM of over 80%.
`CCCN(CCC)c1cccc2nc(Nc3c(C)cc(C)cc3Cl)n(C)c12` [Example 42, N^2-(2-chloro-4,6-dimethylphenyl)-1-methyl-N^7,N^7-dipropyl-1H-benzimidazole-2,7-diamine] had an inhibition at 1 µM of over 80%.
On to `CCCN(CCC)c1cccc2nc(Nc3cc(OC)c(OC)cc3C)n(C)c12` [Example 46, N^2-(4,5-dimethoxy-2-methylphenyl)-1-methyl-N^7,N^7-dipropyl-1H-benzimidazole-2,7-diamine], for which the inhibition at 1 µM was over 80%.
`COc1ccc(N(c2cccc3nc(Nc4c(C)cc(Cl)cc4OC)n(C)c23)C(C)C)cc1` [Example 145, N^2-(4-chloro-2-methoxy-6-methylphenyl)-N^7-isopropyl-N^7-(4-methoxyphenyl)-1-methyl-1H-benzimidazole-2,7-diamine]: the inhibition at 1 µM was over 80%.
Next, `CCCN(CCC)c1cccc2nc(Nc3c(C)cc(C)cc3C)n(C)c12` [Example 26, N^2-Mesityl-1-methyl-N^7,N^7-dipropyl-1H-benzimidazole-2,7-diamine]: over 80%.

The inhibition is the relative decrease from the control value, in per cent. Lower therefore signals little suppression.
